Where “and” joins values, the source holds several entries; their conditions need not be identical. Equal entries are not always repeated. Where two headings read alike, the source gives them in different places.
Biological target: SARS-CoV-2 NSP3 Mac1 (Severe acute respiratory syndrome coronavirus 2, UniProt P0DTD1)
Format: binding
Settings: for Refined occupancy: ligand occupancy after refinement (phenix.refine); for HIT*: true hit = binding in crystallographic soaking or the HTRF-based binding assay
[1] = PanDDA 1-BDC value of the event, crystal soak, compound concentration 100 mM, per dataset
[2] = PanDDA event map, 1 minus background density correction, crystal soaking of Mac1
[3] = crystal soak, compound concentration 100 mM, per dataset
[4] = PanDDA 1-BDC (background density correction) of the event, crystal soak 100 mM, PanDDA run dmso_34
[5] = crystal soak, compound concentration 100 mM, PanDDA run dmso_34, series docking_lead-like_1
[6] = PanDDA 1-BDC of the event, compound stock 100 mM, Echo dispense volume 80 nl
[7] = PanDDA event map 1-BDC, crystal soak, Compound_concentration 100 mM, PanDDA run dmso_34 or nohits_35 per dataset
[8] = crystal soak, Compound_concentration 100 mM, Echo dispense 40 nl, PanDDA run dmso_34 or nohits_35 per dataset
[9] = crystal soak, compound stock 100 mM, Echo dispense volume 80 nl
[10] = ligand modeled in structure, compound stock 100 mM, Echo dispense volume 80 nl
[11] = PanDDA event map, crystal soak, Compound_concentration 100 mM, Echo_dispense_volume 40 nl
[12] = crystal soak, Compound_concentration 100 mM, Echo_dispense_volume 40 nl, PanDDA run (background map) dmso_34, nohits_35 or nohits_62
[13] = ligand modeled, crystal soak, Compound_concentration 100 mM, Echo_dispense_volume 40 nl
[14] = PanDDA event map background density correction, crystal soak, compound concentration 100 mM
[15] = ligand modeled in the crystal structure, crystal soak, compound concentration 100 mM
[16] = ligand modeled from this dataset, compound concentration 100 mM
[17] = ligand modeled in the crystal structure, crystal soak 100 mM, PanDDA run dmso_34

Nc1ncc(S(=O)(=O)N2CC(F)(F)C[C@H]2C(=O)O)cn1 [Compound Z1314]
1-BDC [1]: 0.49
1-BDC (PanDDA event map, 1-BDC of the hit dataset, crystal soak, compound concentration 100 mM): 0.3
1-BDC [2]: 0.19
PanDDA hit? [3]: TRUE
Refined occupancy (crystal soaking of Mac1): 38

CNc1cc(-c2noc(CN3CCCC3=O)n2)ncn1 [Compound Z6028]
1-BDC [4]: 0.05
PanDDA hit? [5]: TRUE

Nc1ncnc2c1ncn2CCCc1ccsc1 [Compound Z5972]
1-BDC [4]: 0.16
PanDDA hit? [5]: TRUE

O=C(O)[C@@H]1[C@@H]2CCN(c3ncnc4[nH]c5cc(F)ccc5c34)C[C@@H]21 [LL114_0037]
1-BDC [6]: 0.17
1-BDC [7]: 0.17
1-BDC (PanDDA) [2]: 0.17
PanDDA hit? [8]: TRUE
PanDDA hit? [9]: TRUE
Modeled? [10]: TRUE
Refined occupancy (crystal soaking of Mac1): 34

O=C(O)CC(NC(=O)c1cc(F)cc2[nH]cnc12)c1ccc(Br)cc1 (stereo not drawn) [Compound Z3722]
1-BDC (PanDDA) [2]: 0.29
1-BDC [11]: 0.29
PanDDA hit? [12]: TRUE
Modeled? [13]: TRUE
Refined occupancy (crystal soaking of Mac1): 40

O=C(Nc1ccc(C(=O)N[C@@H]2c3cccc(O)c3C[C@H]2C(=O)O)cc1)NC1CC1 [Compound E2160]
1-BDC [7]: 0.08 and 0.1
1-BDC (PanDDA) [2]: 0.1
PanDDA hit? [8]: TRUE
Modeled? (ligand modeled in this dataset, crystal soak, Compound_concentration 100 mM): TRUE
Refined occupancy (crystal soaking of Mac1): 20

CC(F)(F)c1cncc(C(=O)NC(Cc2cncc(Br)c2)C(=O)O)c1 (stereo not drawn) [Compound Z3140]
1-BDC [14]: 0.1
1-BDC (PanDDA) [2]: 0.1
Modeled? [15]: TRUE
Refined occupancy (crystal soaking of Mac1): 20

CC(=O)Nc1nc(C)c(S(=O)(=O)Nc2ccc(C)c(C#N)c2)s1 [Compound Z6707]
1-BDC (PanDDA) [2]: 0.23
1-BDC [11]: 0.23
PanDDA hit? [12]: TRUE
Modeled? [13]: TRUE
Refined occupancy (crystal soaking of Mac1): 46

O=C(O)c1ccc(F)c(CNC(=O)c2ccc3[nH]ccc3c2)c1 [Compound Z7647]
1-BDC (PanDDA) [2]: 0.09
1-BDC [11]: 0.09
PanDDA hit? [12]: TRUE
Modeled? [13]: TRUE
Refined occupancy (crystal soaking of Mac1): 18

FC1(F)CCCC(Nc2ncnc3[nH]ccc23)C1 (stereo not drawn) [SRH-0014]
1-BDC [7]: 0.09
PanDDA hit? [8]: TRUE

O=C(NC1c2cccc(O)c2CC1C(=O)O)c1ccc(Nc2cccnc2)cc1 (stereo not drawn) [Compound Z8539_0018]
1-BDC (PanDDA) [2]: 0.1
Modeled? [16]: TRUE
Refined occupancy (crystal soaking of Mac1): 20

Nc1ccc(C(=O)N2CC(c3nnc(S)o3)C2)c(Cl)n1 [Compound Z1366]
1-BDC [14]: 0.1

O=C1CCCN1CCSc1ncnc2[nH]cnc12 [Compound Z9920]
1-BDC [4]: 0.21
1-BDC [2]: 0.21
PanDDA hit? [5]: TRUE
Modeled? [17]: TRUE
Refined occupancy (crystal soaking of Mac1): 42

O=C(NC1C=CC(C(=O)O)C1)c1ncnc2sccc12 (stereo not drawn) [Compound Z6645]
1-BDC [14]: 0.4
1-BDC (PanDDA) [2]: 0.4
Modeled? [15]: TRUE
Refined occupancy (crystal soaking of Mac1): 80

CC(Cc1ccco1)C(=O)N[C@@H](CC(=O)O)c1ccc2c(c1)OCO2 (stereo partly drawn) [Compound Z1877]
1-BDC [14]: 0.15
1-BDC (PanDDA) [2]: 0.15
Modeled? [15]: TRUE
Refined occupancy (crystal soaking of Mac1): 30

Cc1oc(C(N)=O)cc1S(=O)(=O)Nc1cnc(Cl)c(C#N)c1 [Compound Z6746]
1-BDC [14]: 0.16
1-BDC (PanDDA) [2]: 0.16
Modeled? [15]: TRUE
Refined occupancy (crystal soaking of Mac1): 32

O=C(O)Cc1cccc(CNC(=O)c2ncnc3ccsc23)c1 [Compound Z5712]
1-BDC (PanDDA) [2]: 0.32
1-BDC [11]: 0.32
PanDDA hit? [12]: TRUE
Modeled? [13]: TRUE
Refined occupancy (crystal soaking of Mac1): 64

Nc1ncc(S(=O)(=O)N2CC(F)(F)C[C@H]2C(=O)O)cn1 [Z1314]
HIT*: Y

Cn1ncc2ncnc(NS(=O)(=O)Cc3ccc(CC#N)cc3)c21 [Compound Z6742]
1-BDC [14]: 0.31
1-BDC (PanDDA) [2]: 0.31
Modeled? [15]: TRUE
Refined occupancy (crystal soaking of Mac1): 62

Cc1nc(Cn2cnc3c(N)nc(N)nc32)cs1 [Compound Z8569]
1-BDC [1]: 0.4
1-BDC [2]: 0.4
PanDDA hit? [3]: TRUE
Modeled? (ligand modeled in the crystal structure, crystal soak, compound concentration 100 mM, per dataset): TRUE
Refined occupancy (crystal soaking of Mac1): 80

O=C(O)CC1CC(CNC(=O)c2cncc3sccc23)C1 (stereo not drawn) [Compound Z1558]
1-BDC (PanDDA) [2]: 0.24
1-BDC [11]: 0.24
PanDDA hit? [12]: TRUE
Modeled? [13]: TRUE
Refined occupancy (crystal soaking of Mac1): 48
Comment (ligand modelled in the crystal structure) (what was observed in density instead of the vendor structure): C4 substituted thiophene

CC1(C)CN(c2ncnc3[nH]c4ccccc4c23)CC(CC(=O)O)O1 (stereo not drawn) [Compound Z2215]
1-BDC (PanDDA 1-BDC of the event, compound stock 100 mM, Echo dispense volume 40 nl): 0.05
1-BDC [7]: 0.04
1-BDC (PanDDA) [2]: 0.05
PanDDA hit? [8]: TRUE
PanDDA hit? (crystal soak, compound stock 100 mM, Echo dispense volume 40 nl): TRUE
Modeled? (ligand modeled in structure, compound stock 100 mM, Echo dispense volume 40 nl): TRUE
Refined occupancy (crystal soaking of Mac1): 10

O=C(CCCCc1ccc(Br)cc1)NC(CCc1cn[nH]c1)C(=O)O (stereo not drawn) [Compound Z3213]
1-BDC [14]: 0.11

Cc1oc(CNc2ncnc3[nH]c4ccccc4c23)cc1C(=O)O [Compound Z3124]
1-BDC [14]: 0.09
1-BDC (PanDDA) [2]: 0.09
Modeled? [15]: TRUE
Refined occupancy (crystal soaking of Mac1): 18

COC(=O)C1(CO)CCN(c2ncnc3[nH]c4cc(F)ccc4c23)C1 (stereo not drawn) [Compound Z9556]
1-BDC [6]: 0.1
1-BDC (PanDDA) [2]: 0.1
PanDDA hit? [9]: TRUE
Modeled? [10]: TRUE
Refined occupancy (crystal soaking of Mac1): 20

O=C1OCCN1C1CCN(c2ncnc3[nH]c4cc(F)ccc4c23)C1 (stereo not drawn) [Compound Z5107]
1-BDC [6]: 0.09
1-BDC [7]: 0.06
1-BDC (PanDDA) [2]: 0.06
1-BDC [11]: 0.06
PanDDA hit? [8]: TRUE
PanDDA hit? [12]: TRUE
PanDDA hit? [9]: TRUE
Modeled? [13]: TRUE
Refined occupancy (crystal soaking of Mac1): 12

Cc1oc(=O)oc1CSc1ncnc2[nH]cnc12 [Compound Z7450]
1-BDC [4]: 0.23
1-BDC [2]: 0.23
PanDDA hit? [5]: TRUE
Modeled? [17]: TRUE
Refined occupancy (crystal soaking of Mac1): 25

O=C(NC1c2cccc(O)c2CC1C(=O)O)c1ccc(Nc2cccnc2)cc1 (stereo not drawn) [Z8539_0018]
HIT*: Y

O=C(Nc1ccc(C(=O)NC2c3cccc(O)c3CC2C(=O)O)cn1)NC1CC1 (stereo not drawn) [Compound Z8539_0054]
1-BDC [2]: 0.14
Modeled? [16]: TRUE
Refined occupancy (crystal soaking of Mac1): 28

CC(C)c1noc(CCc2nc(-c3ccnc4[nH]ccc34)no2)n1 [Compound Z1347]
1-BDC [4]: 0.03
PanDDA hit? [5]: TRUE

O=C(O)Cc1ccc(CNC(=O)c2ccnc3ccsc23)cc1 [Compound Z6625]
1-BDC (PanDDA) [2]: 0.12
1-BDC [11]: 0.12
PanDDA hit? [12]: TRUE
Modeled? [13]: TRUE
Refined occupancy (crystal soaking of Mac1): 24

Nc1nc(N)c2ncn(Cc3csc(Cl)n3)c2n1 [Compound Z8572]
1-BDC [2]: 0.44
Modeled? (ligand modeled in structure, crystal soak, Compound_concentration 100 mM): TRUE
Refined occupancy (crystal soaking of Mac1): 88

Source: PMC9926234, “Iterative computational design and crystallographic screening identifies potent inhibitors targeting the Nsp3 macrodomain of SARS-CoV-2” (Proceedings of the National Academy of Sciences of the …, 2023)
